{"source": "patent US4593104A", "about": "“2-halo-N-(azole-1-yl-methyl)-substituted acetanilides” (BASF Aktiengesellschaft, priority 1976, dated 1986)", "assay_in_all_cases": "preemergence treatment in the greenhouse, % damage", "conditions_in_all_cases": "2.0 kg/ha", "key": {"Bromus spp.": {"tested_on": "Bromus spp.", "type": "in vivo", "in_short": "(§1)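 Greenhouse herbicide test at rates in kg/ha a.i. Pre-em soil spray right after sowing, then irrigation and hooding; post-em on 3–10 cm plants. Rated 0–100 over 4–6 weeks.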"}, "Echin. c.g.": {"tested_on": "Echin. c.g.", "type": "in vivo", "in_short": "as §1"}, "Matric. spp.": {"tested_on": "Matric. spp.", "type": "in vivo", "in_short": "as §1"}, "Zea mays": {"tested_on": "Zea mays", "type": "in vivo", "in_short": "as §1"}, "Setaria spp.": {"tested_on": "Setaria spp.", "type": "in vivo", "in_short": "as §1"}, "Alopec. myosur.": {"tested_on": "Alopec. myosur.", "type": "in vivo", "in_short": "as §1"}, "Arach. hypog.": {"tested_on": "Arach. hypog.", "type": "in vivo, Arachis hypogaea", "from_the_text": "The vessels employed were plastic flowerpots having a volume of 300 cm^3; the substrate was a sandy loam containing about 1.5% humus. The seeds of the test plants (see Table 1) were sown shallow, and separated according to species. In the case of Cyperus esculentus, pregerminated tubers were planted. In the preemergence treatment, the active ingredients were then immediately applied to the surface of the soil. They were suspended or emulsified in water as the vehicle, and sprayed through atomizing nozzles. After the agents had been applied, the vessels were lightly sprinkler-irrigated to set germination and growth going, and to activate the chemical agents. The vessels were then covered with transparent plastic hoods until the plants had taken root. This cover ensured uniform germination of the test plants (to the extent that this was not impaired by the chemicals), and prevented readily volatile substances from evaporating.\nFor postemergence treatment, the plants were first grown to a height of from 3 to 10 cm, depending on their habit, before treated. Hoods were not placed on the pots. The experiments were set up in the greenhouse, hotter areas (25° to 40° C.) being preferred for heat-loving species, and 15° to 30° C. for plants from moderate climates. The experiments were carried out for from 4 to 6 weeks. During this period the plants were tended and their reaction to the various treatments was assessed. The following tables contain the substances investigated, the application rates in kg/ha of active ingredient, and the test plant species. Assessments were made on a 0 to 100 scale, 0 denoting no damage or normal emergence, and 100 denoting no emergence or complete destruction of at least the visible plant parts."}}}
{"smiles": "Cc1cccc(C)c1N(Cn1ncnn1)C(=O)CCl", "values": [{"measurement": "% damage", "setting": "Bromus spp.", "value": 98, "unit": "%"}, {"measurement": "% damage", "setting": "Echin. c.g.", "value": 100, "unit": "%"}, {"measurement": "% damage", "setting": "Matric. spp.", "value": 100, "unit": "%"}, {"measurement": "% damage", "setting": "Zea mays", "value": 15, "unit": "%"}, {"measurement": "% damage", "setting": "Setaria spp.", "value": 95, "unit": "%"}, {"measurement": "% damage", "setting": "Alopec. myosur.", "value": 98, "unit": "%"}, {"measurement": "% damage", "setting": "Arach. hypog.", "value": 15, "unit": "%"}]}
